Among the test systems are KM12 colon; MCF7 breast; MDA-MB-231 breast; MDA-MB-435; OVCAR-4 ovarian; SF-295 CNS; SR leukemia; SW-620 colon; UO-31 renal; SK-MEL-2 melanoma.
Common to all, as to experiment: growth of human tumour cells (NCI), 48 h

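Where inhibition never reached the appropriate level, the endpoint shown equals the highest concentration tested. Otherwise, values were interpolated linearly from a five-concentration, 48-hour dose response in 96-well plates. GI50 is the concentration that inhibits growth by half. At the TGI there is no net growth.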

Consider `COc1cc2c(c(OC)c1OC)-c1ccc(OC)c(=O)cc1C(NC(=O)c1ccc(N=[N+]=[N-])cc1)CC2` (stereo not given), for which the TGI in the test with KM12 colon is 0.0786 µM; in the test with MCF7 breast it was > 100 µM; with MDA-MB-231 breast, 12.5 µM; in the test with MDA-MB-435, 0.0473 µM; in the test with OVCAR-4 ovarian it was > 100 µM; in the test on SF-295 CNS it was 0.0582 µM. The TGI was > 100 µM with SR leukemia, > 100 µM in the test on SW-620 colon and > 95.7 µM in the test on UO-31 renal.
Turning to `Cc1ccc(S(=O)(=O)Nc2ccccc2C(=O)c2ccc(C)c(C)c2)cc1`, the TGI in the test on KM12 colon, in the test on MCF7 breast, with MDA-MB-231 breast, in the test with MDA-MB-435, with OVCAR-4 ovarian and in the test on SF-295 CNS was > 100 µM in each case. Further, the TGI with SK-MEL-2 melanoma, in the test with SW-620 colon and with UO-31 renal was > 100 µM throughout.
For the compound `COc1ccc([C@H]2[C@@H](F)C(=O)N2c2cc(OC)c(OC)c(OC)c2)cc1F`, the GI50 was 0.0596 µM with KM12 colon; 0.0364 µM with MCF7 breast; 0.355 µM in the test with MDA-MB-231 breast; 0.966 µM with OVCAR-4 ovarian; 0.0535 µM in the test with SF-295 CNS; 0.303 µM in the test with SK-MEL-2 melanoma. Further, the GI50 in the test on SR leukemia is 0.0408 µM; in the test on SW-620 colon, 0.0562 µM; with UO-31 renal, 0.171 µM. Moreover, the TGI with KM12 colon, in the test with MCF7 breast, with MDA-MB-231 breast, in the test with OVCAR-4 ovarian, in the test with SF-295 CNS and in the test on SK-MEL-2 melanoma was > 100 µM throughout. In addition, the TGI in the test with SR leukemia, in the test with SW-620 colon and in the test with UO-31 renal was > 100 µM in each case.
Regarding `O=C(/C=C/c1ccncc1)c1cc(Cl)ccc1O`, the GI50 was 15.7 µM in the test on KM12 colon; 13.1 µM with MCF7 breast; 18.6 µM with MDA-MB-231 breast; 17.1 µM with MDA-MB-435; 27.3 µM with OVCAR-4 ovarian; 15.3 µM with SF-295 CNS. The values for the GI50 in the test with SK-MEL-2 melanoma, with SW-620 colon and with UO-31 renal were 19.7 µM, 12.5 µM and 11 µM, respectively. Moreover, the TGI in the test with KM12 colon came to 32.5 µM; with MCF7 breast it was 27.7 µM; in the test with MDA-MB-231 breast, 42.3 µM; in the test on MDA-MB-435, 41 µM; in the test with OVCAR-4 ovarian, 88.1 µM; with SF-295 CNS, 34.8 µM. For the same compound, the TGI in the test on SK-MEL-2 melanoma amounted to 37.8 µM; in the test with SW-620 colon, 30.5 µM; in the test on UO-31 renal, 26.7 µM.
Consider `OCC#Cc1ccccc1C#Cc1ccccc1`, for which the GI50 in the test with KM12 colon was 10.8 µM; in the test on MCF7 breast, 19.5 µM; in the test with MDA-MB-231 breast it was 3.26 µM; in the test with MDA-MB-435, 14.2 µM; in the test on OVCAR-4 ovarian it was 17 µM; with SF-295 CNS, 15.5 µM. The GI50 was 24.1 µM in the test on SK-MEL-2 melanoma, 20 µM with SW-620 colon and 35.2 µM with UO-31 renal. The TGI in the test with KM12 colon is 22.9 µM; in the test on MCF7 breast it was 44.4 µM; in the test with MDA-MB-231 breast, 16.4 µM; with MDA-MB-435, 28.1 µM; in the test on OVCAR-4 ovarian it was 45.2 µM; in the test on SF-295 CNS, 32.8 µM. In addition, the TGI in the test on SK-MEL-2 melanoma was 51.3 µM; in the test on SW-620 colon, 43.6 µM; with UO-31 renal, > 100 µM.
In the case of `O=C1c2cc3c(cc2-c2c1c1ccc(F)cc1c(=O)n2CCCNCCO)OCO3`, the GI50 in the test with KM12 colon is 0.0646 µM; in the test with MDA-MB-231 breast, 0.255 µM; with MDA-MB-435, 0.0674 µM; in the test on OVCAR-4 ovarian, 0.194 µM; in the test on SF-295 CNS, 0.0224 µM; in the test with SK-MEL-2 melanoma, 0.273 µM. Also, the GI50 in the test on SW-620 colon was 0.0218 µM; with UO-31 renal, 0.0292 µM. The TGI turned out to be 1.06 µM in the test on KM12 colon; 0.166 µM in the test on MCF7 breast; 1.06 µM in the test with MDA-MB-231 breast; 0.955 µM with MDA-MB-435; 1.33 µM in the test with OVCAR-4 ovarian; 0.114 µM with SF-295 CNS. The results for the TGI with SK-MEL-2 melanoma, with SW-620 colon and with UO-31 renal were 0.716 µM, 1 µM and 0.148 µM, respectively.
Consider `Cc1cc(-c2ccc3nc(C4CCOCC4)n(CCOC(F)(F)F)c3c2)cn(C)c1=O`, for which the GI50 in the test on KM12 colon was 0.724 µM; in the test on MCF7 breast, 0.0586 µM; in the test with MDA-MB-435, 0.21 µM; in the test on SF-295 CNS, 0.748 µM; in the test on SK-MEL-2 melanoma it was 0.988 µM; in the test with SR leukemia it was 0.597 µM. Besides, the GI50 in the test with SW-620 colon is 1.79 µM. Moreover, the TGI in the test on KM12 colon was 11.4 µM; with MDA-MB-435 it was > 47.5 µM; in the test on SK-MEL-2 melanoma, 15.5 µM; in the test on SR leukemia it was 13.4 µM; in the test with SW-620 colon, 33.3 µM; in the test with UO-31 renal it was > 20.7 µM.
For `O=C(CSc1ccc(Cl)cc1)Nc1ccc(-c2nc3ccccc3s2)c(Cl)c1`, the GI50 in the test with KM12 colon was 3.66 µM; with MCF7 breast, 4.67 µM; with MDA-MB-231 breast it was 8.34 µM; in the test with MDA-MB-435, 3.72 µM; in the test on OVCAR-4 ovarian it was 5.95 µM; in the test with SF-295 CNS, 2 µM. For the same compound, the GI50 was 3.82 µM in the test with SK-MEL-2 melanoma, 3.67 µM in the test on SW-620 colon and 2.29 µM with UO-31 renal. Moreover, the TGI in the test with KM12 colon is > 100 µM; in the test with MCF7 breast, 39.2 µM; in the test with MDA-MB-231 breast, 23.6 µM; in the test on MDA-MB-435 it was 35.4 µM; with OVCAR-4 ovarian it was > 100 µM; in the test on SF-295 CNS, 5.42 µM. In addition, the TGI in the test with SK-MEL-2 melanoma is 15.7 µM; in the test with SW-620 colon, 83.4 µM; with UO-31 renal it was 22.9 µM.
With `CC(C)(C)OC(=O)N[C@H]1CC2(C=C(Cl)C(=O)C(Cl)=C2)OC1=O`, the TGI in the test on KM12 colon worked out at 32 µM; in the test with MCF7 breast, 23.3 µM; in the test with MDA-MB-231 breast, 33.8 µM; in the test with OVCAR-4 ovarian, 32.5 µM; in the test with SF-295 CNS, 47.5 µM; with SK-MEL-2 melanoma it was 41.7 µM. The TGI was > 25 µM with SR leukemia, 19.1 µM in the test on SW-620 colon and 38.8 µM in the test with UO-31 renal.
With `COc1cc2c3c(n(C)c(=O)c2cc1OC)-c1cc2c(cc1/C3=C\CCCN)OCO2`, the GI50 was 11 µM with KM12 colon; 3.95 µM in the test with MCF7 breast; 5.09 µM with MDA-MB-231 breast; 8.6 µM in the test with MDA-MB-435; 17.9 µM in the test on OVCAR-4 ovarian; 1.83 µM in the test on SF-295 CNS. Further, the GI50 in the test on SK-MEL-2 melanoma is 16.6 µM; in the test on SW-620 colon it was 2.33 µM; in the test with UO-31 renal, 3.18 µM. In addition, the TGI came out at 84.8 µM in the test with KM12 colon; 42.8 µM in the test on MCF7 breast; 31.5 µM in the test on MDA-MB-231 breast; 41.6 µM with MDA-MB-435; 52.7 µM with OVCAR-4 ovarian; 8.15 µM with SF-295 CNS. Moreover, the TGI is 45 µM in the test with SK-MEL-2 melanoma, 32.9 µM in the test on SW-620 colon and 20.3 µM with UO-31 renal.
As for `C[C@@H]1CCC2[C@@H](C)[C@@H](OCC(CO[C@H]3OC4O[C@@]5(C)CC[C@H]6[C@H](C)CCC([C@H]3C)[C@@]46OO5)OC(=O)CCC(=O)O)OC3O[C@@]4(C)CC[C@@H]1[C@]32OO4` (stereo not given in full), the GI50 in the test with KM12 colon was < 0.01 µM; in the test on MCF7 breast, < 0.01 µM; in the test with MDA-MB-231 breast, 0.0602 µM; with MDA-MB-435, < 0.0115 µM; in the test on OVCAR-4 ovarian it was 0.0583 µM; with SF-295 CNS, 0.0335 µM. Further, the GI50 in the test on SK-MEL-2 melanoma was 4.22 µM; in the test with SW-620 colon it was 0.0285 µM; in the test on UO-31 renal, 1.57 µM. Also, the TGI in the test on MCF7 breast is 16.7 µM; with MDA-MB-231 breast, 7.95 µM; with MDA-MB-435, 13 µM; with OVCAR-4 ovarian it was 26.3 µM; in the test with SF-295 CNS, 15.8 µM; in the test on SK-MEL-2 melanoma, > 51.6 µM. Further, the TGI was 18.1 µM with SW-620 colon and > 46 µM with UO-31 renal.
`C=C1NC(=O)C(C(C)CC)NC(=O)C2CSCC(NC(=O)CCC(=O)O)C(=O)NC(Cc3ccccc3)C(=O)NC(C)C(=O)NC(CC(C)CC)C(=O)NC(C(=O)NC(Cc3ccccc3)C(=O)N3CCCC3C(=O)N2)C(C)OC(=O)C(CO)NC(=O)C(C(O)COC)N(C)C(=O)C(C(C)C)NC(=O)C(CC(C)CC)NC1=O` (stereo not given): the GI50 with KM12 colon is 0.00529 µM; with MCF7 breast, 0.0124 µM; with MDA-MB-231 breast, 0.0201 µM; in the test on OVCAR-4 ovarian it was 0.339 µM; with SF-295 CNS it was 0.00594 µM; in the test on SK-MEL-2 melanoma it was 0.00485 µM. Also, the GI50 in the test with SR leukemia was 0.0259 µM; with SW-620 colon, 0.0175 µM; in the test on UO-31 renal, 0.567 µM. Moreover, the TGI was > 6 µM in the test with KM12 colon; > 6 µM in the test with MCF7 breast; 3.24 µM with MDA-MB-231 breast; > 6 µM with OVCAR-4 ovarian; > 6 µM in the test on SF-295 CNS; > 6 µM in the test on SK-MEL-2 melanoma. Also, the TGI in the test with SR leukemia, with SW-620 colon and with UO-31 renal was > 6 µM throughout.
Turning to `COc1cc2c3c(n(C)c(=O)c2cc1OC)-c1cc2c(cc1/C3=C\CCN)OCO2`, the GI50 in the test on KM12 colon was 0.426 µM; with MCF7 breast it was 0.094 µM; in the test with MDA-MB-231 breast it was 1.36 µM; in the test on MDA-MB-435, 0.538 µM; in the test on OVCAR-4 ovarian, 0.792 µM; with SF-295 CNS, < 0.0239 µM. Also, the GI50 is 6.11 µM with SK-MEL-2 melanoma, < 0.01 µM with SW-620 colon and 0.337 µM in the test on UO-31 renal. Moreover, the TGI in the test on KM12 colon stood at 2.11 µM; in the test with MCF7 breast it was 1.3 µM; in the test with MDA-MB-231 breast, 4.78 µM; in the test on MDA-MB-435, 9.56 µM; in the test on OVCAR-4 ovarian, 6.54 µM; in the test on SF-295 CNS, 8.84 µM. The TGI came to 27 µM with SK-MEL-2 melanoma, 1.62 µM in the test on SW-620 colon and 8.9 µM with UO-31 renal.

Source of the values: PubChem BioAssay (NCI).
